Measured values published in publication PMC11050599, “Novel Tetracyclic Azaphenothiazines with the Quinoline Ring as New Anticancer and Antibacterial Derivatives of Chlorpromazine” (International Journal of Molecular Sciences, 2024).

Tests used:
[1] = system: S. epidermidis ATCC 12228; experiment: MIC broth microdilution; format: cell-based; conditions: Staphylococcus epidermidis, ATCC12228; 19 h, 35 °C; read-out: MIC S. epidermidis ATCC 12228
Text: (§1) To evaluate the antibacterial effectiveness of chloroquinobenzothiazine derivatives, various bacterial strains from international microbe collections such as the American Type Culture Collection (ATCC) and the National Collection of Type Culture (NCTC) were examined, alongside a panel of clinical rods. This included two Gram-negative organisms, E. coli ATCC 25922 and P. aeruginosa ATCC 15442, and a series of six Gram-positive strains: S. aureus NCTC 4163; S. aureus ATCC 29213, 25923, and 6538; and S. epidermidis ATCC 12228 and 35984. […] The MIC was determined using the two-fold serial broth microdilution method in 96-well microtitration plates containing Mueller-Hinton II broth medium (Becton Dickinson, Franklin Lakes, NJ, USA). The final inoculum for all tested bacteria was adjusted to […] (colony-forming units per milliliter). The stock solution of the tested compounds was prepared in dimethyl sulfoxide (DMSO) and diluted to a maximum of 1% solvent content with a sterile medium.

S. aureus ATCC 29213 = experiment: MIC broth microdilution; format: cell-based; conditions: Staphylococcus aureus, ATCC29213; 19 h, 35 °C; read-out: MIC S. aureus ATCC 29213
Text: as §1

P. aeruginosa ATCC 15442 = experiment: MIC broth microdilution; format: cell-based; conditions: Pseudomonas aeruginosa, ATCC15442; 19 h, 35 °C; read-out: MIC P. aeruginosa ATCC 15442
Text: as §1

E. coli ATCC 25922 = experiment: MIC broth microdilution; format: cell-based; conditions: Escherichia coli, ATCC25922; 19 h, 35 °C; read-out: MIC E. coli ATCC 25922
Text: as §1

S. aureus ATCC 25923 = experiment: MIC broth microdilution; format: cell-based; conditions: Staphylococcus aureus, ATCC25923; 19 h, 35 °C; read-out: MIC S. aureus ATCC 25923
Text: as §1

S. aureus NCTC 4163 = experiment: MIC broth microdilution; format: cell-based; conditions: Staphylococcus aureus, NCTC4163; 19 h, 35 °C; read-out: MIC S. aureus NCTC 4163
Text: as §1

[2] = system: S. epidermidis ATCC 35984; experiment: MIC broth microdilution; format: cell-based; conditions: Staphylococcus epidermidis, ATCC35984; 19 h, 35 °C; read-out: MIC S. epidermidis ATCC 35984
Text: as §1

S. aureus ATCC 6538 = experiment: MIC broth microdilution; format: cell-based; conditions: Staphylococcus aureus, ATCC6538; 19 h, 35 °C; read-out: MIC S. aureus ATCC 6538
Text: as §1

[3] = system: MDA-MB-231 (breast cancer); experiment: MTT assay, MDA-MB-231 cells; format: cell-based, human; conditions: for IC50: Homo sapiens, MDA-MB-231, MTT, 72 h, MDA-MB231, read-out: IC50 MDA; for SI MDA: SI = IC50 for normal cell line (HaCaT)/IC50 cancer cell line
Procedure: (§2) The human cell lines, such as A549 (lung cancer), MDA-MB-231 (breast cancer), MiaPaca-2 (pancreatic cancer), PC3 (metastatic prostate cancer), HCT-116 (colon carcinoma), and HaCaT (immortalized keratinocytes), were sourced from the American Type Culture Collection (ATCC) in Rockville, USA. Culturing conditions varied as follows: HCT116 cells were cultured in MEM (ThermoSci, Waltham, MA, USA), A549, MDA-MB-231, MiaPaca, HaCaT cells in DMEM High Glucose and PC3 cells were cultured in RPMI (Biowest SAS, Nuaillé, France). The growth medium consisted of 10% fetal bovine serum (FBS, Sigma-Aldrich, St. Louis, MO, USA), 20 mM HEPES (Biowest, Nuaillé, France), and antibiotics (100 U/mL of penicillin and 100 μg/mL of streptomycin) from Gibco, Grand Island, NY, USA. […] These compounds were added to 96-well plates containing study cells (1 × 10^4 cells per well) and incubated for 72 h. […] Cell absorbance results were incorporated into the formula for calculating the relative MTT level (%), enabling the assessment of cell viability following exposure to the test compounds. The cell viability percentage represents the MTT reduction in cells treated with the test compounds compared to the control sample, where only the medium was added to the cells.

[4] = system: HaCaT (immortalized human keratinocytes); experiment: MTT assay, HaCaT normal cells; format: cell-based; conditions: Homo sapiens, HaCaT; MTT, 72 h, normal cells; read-out: IC50 HaCaT (Table 3)
Procedure: as §2

A549 (lung cancer) = experiment: MTT assay, A549 cells; format: cell-based, human; conditions: for IC50: Homo sapiens, A549, MTT, 72 h, mean SD, read-out: IC50 A549; for SI A549: SI = IC50 for normal cell line (HaCaT)/IC50 cancer cell line
Procedure: as §2

Cc1ccc(S(=O)(=O)NCCCN2c3cc(Cl)ccc3Sc3cc4ccccc4nc32)cc1 [Compound 24, N-(3-(8-Chloroquino[3,2-b]benzo[1,4]thiazin-6-yl)propyl)-4-methylbenzenesulfonamide]
1.0: SI MDA [3] | SI A549 (A549 (lung cancer))
> 256 mg/L: MIC [1] | MIC (S. aureus ATCC 29213) | MIC (P. aeruginosa ATCC 15442) | MIC (E. coli ATCC 25922) | MIC (S. aureus ATCC 25923) | MIC (S. aureus NCTC 4163) | MIC [2] | MIC (S. aureus ATCC 6538)
> 100 µM: IC50 [3] | IC50 [4] | IC50 (A549 (lung cancer))

C#CCN1c2cc(Cl)ccc2Sc2cc3ccccc3nc21 [Compound 26, 8-chloro-6-propynyquinobenzothiazine]
> 256 mg/L: MIC [1] | MIC (S. aureus ATCC 29213) | MIC (P. aeruginosa ATCC 15442) | MIC (E. coli ATCC 25922) | MIC (S. aureus ATCC 25923) | MIC (S. aureus NCTC 4163) | MIC [2] | MIC (S. aureus ATCC 6538)
71.7 ± 5.7 µM: IC50 [4]
95.8 ± 9.2 µM: IC50 [3]
0.7: SI MDA [3]
1.0: SI A549 (A549 (lung cancer))
> 100 µM: IC50 (A549 (lung cancer))

CCOC(=O)NCCCCN1c2cc(Cl)ccc2Sc2cc3ccccc3nc21 [Compound 19, Ethyl(4-(8-chloroquino[3,2-b]benzo[1,4]thiazin-6-yl)butyl)carbamate]
> 256 mg/L: MIC [1] | MIC (S. aureus ATCC 29213) | MIC (P. aeruginosa ATCC 15442) | MIC (E. coli ATCC 25922) | MIC (S. aureus ATCC 25923) | MIC (S. aureus NCTC 4163) | MIC [2] | MIC (S. aureus ATCC 6538)
> 100 µM: IC50 [3] | IC50 [4] | IC50 (A549 (lung cancer))
1.0: SI MDA [3] | SI A549 (A549 (lung cancer))

CCN(CC)CCN1c2cc(Cl)ccc2Sc2cc3ccccc3nc21 [Compound 7, 2-(8-Chloroquino[3,2-b]benzo[1,4]thiazin-6-yl)-N,N-diethylethan-1-amine]
8 mg/L: MIC [1] | MIC (S. aureus ATCC 29213) | MIC (S. aureus ATCC 25923) | MIC (S. aureus NCTC 4163) | MIC [2] | MIC (S. aureus ATCC 6538)
1.0: SI MDA [3]
3.7: SI A549 (A549 (lung cancer))
> 256 mg/L: MIC (P. aeruginosa ATCC 15442) | MIC (E. coli ATCC 25922)
> 100 µM: IC50 [3] | IC50 [4]
27.2 ± 8.4 µM: IC50 (A549 (lung cancer))

Fc1ccc(Cn2cc(CN3c4cc(Cl)ccc4Sc4cc5ccccc5nc43)nn2)cc1 [Compound 30, 8-chloro-6-((1-(4-fluorobenzyl)-1H-1,2,3-triazol-4-yl)methyl)-quino[3,2-b]benzo[1,4]thiazine]
> 256 mg/L: MIC [1] | MIC (S. aureus ATCC 29213) | MIC (P. aeruginosa ATCC 15442) | MIC (E. coli ATCC 25922) | MIC (S. aureus ATCC 25923) | MIC (S. aureus NCTC 4163) | MIC [2] | MIC (S. aureus ATCC 6538)
1.0: SI MDA [3] | SI A549 (A549 (lung cancer))
> 100 µM: IC50 [3] | IC50 [4] | IC50 (A549 (lung cancer))

N#Cc1ccc(Cn2cc(CN3c4cc(Cl)ccc4Sc4cc5ccccc5nc43)nn2)cc1 [Compound 32, 4-((4-((8-Chloroquino[3,2-b]benzo[1,4]thiazin-6-yl)methyl)-1H-1,2,3-triazol-1-yl)methyl)benzonitrile]
> 100 µM: IC50 [3] | IC50 [4] | IC50 (A549 (lung cancer))
> 256 mg/L: MIC [1] | MIC (S. aureus ATCC 29213) | MIC (P. aeruginosa ATCC 15442) | MIC (E. coli ATCC 25922) | MIC (S. aureus ATCC 25923) | MIC (S. aureus NCTC 4163) | MIC [2] | MIC (S. aureus ATCC 6538)
1.0: SI MDA [3] | SI A549 (A549 (lung cancer))
